Columns and labels:
[1] = test system: lung damage induced by caerulein; assay: Lung damage induced by pancreatitis, C57/BL6 mouse; format: in vivo; settings: cotreatment 10, 20, 40 mg/kg
IL-1β [2] = assay: Expression of IL-1β in pancreas by real-time PCR, caerulein mediated pancreatitis model; format: in vivo; settings: C57BL/6 mice, oral treatment one day before caerulein, vs caerulein treated group
Procedure: (§1) In this invention, C57BL/6 mice at the body weight of about 22±2 g were used. All the mice were raised in a sterile animal laboratory with constant temperature (22˜26[…]) and humidity (55˜60%). The mice were adapted for 1 week while feeding with normal solid feed (Samtaco Korea) and water. All the experiments were performed according to the guide for the care and use of laboratory animals set by Wonkwang University.
(§2) Serum was obtained from the animal model and then the level of serum IL-1β was measured by using mouse IL-1β ELISA kit (BD, USA). First, nasal lavage fluid or diluted serum was loaded in the 96-well plate coated with the mouse IL-1β specific antibody, followed by reaction at room temperature for 2 hours. After washing the plate, biotin conjugate was added thereto, followed by reaction at room temperature for 1 hour. After washing the plate, streptavidin-HRP working solution was added thereto, followed by reaction. After washing the plate again, stabilized chromogen was added thereto, followed by reaction. Then, OD450 was measured. In addition, the expression of IL-1β in pancreas was confirmed by real-time PCR in each pancreas tissue. To extract total RNA, 1 mL of TRIzol (Invitrogen, USA) was added to 20 mg of each pancreas tissue, which stood on ice for 5 minutes to lyse cells. […] The RNA was quantified by using Nanodrop 2000 (Thermo, USA). […]

[3] = test system: caerulein mediated pancreatitis; assay: Morphological changes of pancreas tissue (hematoxylin-eosin, histological scores), preventive treatment; format: in vivo; settings: C57/BL6 mouse, oral 10, 20, 40 mg/kg one day before caerulein; dose-dependently
Procedure: as §1
Pancreas tissues were separated, fixed in 10% formalin for 24 hours at 4[…], demineralized with 10% ethylenediaminetetra-acetic acid (EDTA, pH 7.4) solution, washed, dehydrated, embedded in paraffin and cut into 5 μm sections. The sections were stained with hematoxylin-eosin, followed by observation under optical microscope.

NQO-1 knock out mouse [4] = assay: Morphological changes of pancreas tissue in NQO1 knock out mouse; format: in vivo; settings: 40 mg/kg plus caerulein, vs caerulein treated group
Text: β-lapachone is known as a co-substrate of NQO-1 (NAD(P)H: quinone oxidoreductase-1). So, in order to confirm whether or not the pancreas protection effect of β-lapachone was via the activation pathway of NQO-1, the morphological changes of pancreas were investigated in NQO-1 knock out mouse.
Then, the pancreas tissues were stained with hematoxylin-eosin by the same manner as described in Experimental Example 5, followed by observation under optical microscope.

NQO-1 knock out mouse [5] = assay: Ratio of pancreas weight to body weight in NQO-1 knock out mouse; format: in vivo; settings: NQO1 knock out mouse; caerulein treated group vs β-lapachone cotreated group
Procedure: (§3) To confirm whether or not the protective effect of β-lapachone on pancreatitis was via the activation pathway of NQO-1 enzyme, the present inventors investigated the weight of pancreas, the activities of serum amylase and lipase, and the concentration of serum IL-1β in NQO-1 knock out mouse.
(§4) Then, the ratio of the pancreas weight to the body weight was calculated by the same manner as described in Experimental Example 2. The activities of serum amylase and lipase were measured using a kit by the same manner as described in Experimental Example 3.

[6] = test system: pancreatitis induced by caerulein; assay: Therapeutic effect on caerulein-induced pancreatitis, pancreas tissue morphology; format: in vivo, C57BL/6 mice; settings: intravenous injection six hours after the final caerulein administration; 10, 20, 40 mg/kg
Procedure: as §1

NQO-1 knock out mouse [7] = assay: Lung damage induced by pancreatitis, NQO-1 knock out mouse; format: in vivo; settings: cotreatment with β-lapachone
IL-1β [8] = assay: Serum IL-1β concentration in NQO-1 knock out mouse; format: in vivo; settings: NQO1 knock out mouse; caerulein treated group vs β-lapachone cotreated group
Procedure: as §3, §4

MCP-1 = assay: Expression of MCP-1 in pancreas by RT-PCR, caerulein mediated pancreatitis model; format: in vivo; settings: C57BL/6 mice, oral 10, 20, 40 mg/kg one day before caerulein, vs caerulein treated group
Procedure: as §1

amylase [9] = assay: Serum amylase activity in NQO-1 knock out mouse; format: in vivo; settings: NQO1 knock out mouse; caerulein treated group vs β-lapachone cotreated group
Procedure: as §3, §4

[10] = test system: caerulein mediated pancreatitis; assay: Ratio of pancreas weight to body weight, caerulein mediated pancreatitis model; format: in vivo; settings: C57BL/6 mice, oral 10, 20, 40 mg/kg one day before caerulein (50 μg/kg i.p. x6); vs caerulein treated group
Procedure: as §1, with “University. […] When pancreatitis is developed, the weight of pancreas is known to be increased because of edema. Thus, blood was extracted from all the animals finished with the experiment and then the ratio of the pancreas weight to the body weight was measured. […] After blood was extracted, the pancreas was cut out and the weight of the pancreas to the body weight was measured by the pancreas weight (wet pancreas weight)/body weight (wet body weight) formula of Grady method.” for “University.”

lipase [11] = assay: Serum lipase activity, caerulein mediated pancreatitis model; format: in vivo; settings: C57BL/6 mice, oral 10, 20, 40 mg/kg one day before caerulein; vs caerulein treated group
Procedure: as §1
(§5) Serum was obtained and then OD595 and OD412 were measured by using amylase activity analysis kit (DAMY-100; BioAssay Systems, USA) and lipase activity analysis kit (DLPS-100; BioAssay Systems, USA) to investigate the activities of amylase and lipase.

lipase [12] = assay: Serum lipase activity in NQO-1 knock out mouse; format: in vivo; settings: NQO1 knock out mouse; caerulein treated group vs β-lapachone cotreated group
Procedure: as §3, §4

IL-1β [13] = assay: Serum IL-1β level by ELISA, caerulein mediated pancreatitis model; format: in vivo; settings: C57BL/6 mice, oral 10, 20, 40 mg/kg one day before caerulein, dose-dependently, vs caerulein treated group
Procedure: as §1, §2

amylase [14] = assay: Serum amylase activity, caerulein mediated pancreatitis model; format: in vivo; settings: C57BL/6 mice, oral 10, 20, 40 mg/kg one day before caerulein; vs caerulein treated group
Procedure: as §1, §5

Structure (SMILES) | lung damage induced by caerulein [1] | expression of IL-1β in pancreas (IL-1β [2]) | edema, inflammation, and cell necrosis of pancreas tissues induced by caerulein (histological scores) [3] | edema, inflammation, and cell necrosis of pancreas tissues (NQO-1 knock out mouse [4]) | ratio of pancreas weight/body weight (NQO-1 knock out mouse [5]) | edema, inflammation, and cell necrosis of pancreas tissues induced by caerulein (histological scores) [6] | lung damage induced by caerulein (NQO-1 knock out mouse [7]) | concentration of serum IL-1β (IL-1β [8]) | expression of MCP-1 in pancreas (MCP-1) | activity of serum amylase (amylase [9]) | ratio of pancreas weight/body weight [10] | lipase activity in serum (lipase [11]) | activity of serum lipase (lipase [12]) | serum IL-1β level (IL-1β [13]) | amylase activity in serum (amylase [14])
CC1(C)CCC2=C(O1)c1ccccc1C(=O)C2=O [β-lapachone] | inhibited | significantly reduced | all inhibited | not reduced | not significantly different | all reduced | not inhibited | not much different | reduced dose-dependently | not significantly different | significantly reduced dose-dependently | significantly reduced dose-dependently | not significantly different | significantly reduced | significantly reduced dose-dependently
CC1OC2=C(C(=O)C(=O)c3ccccc32)C1(C)C (centres unmarked) [dunnione] | significantly inhibited | significantly reduced | all inhibited |  |  |  |  |  | reduced dose-dependently |  | significantly reduced dose-dependently | significantly reduced dose-dependently |  | significantly reduced | significantly reduced dose-dependently

— patent publication US20200155500A1, “COMPOSITION FOR PREVENTING AND TREATING PANCREATITIS CONTAINING NAPHTHOQUINONE-BASED COMPOUND AS ACTIVE INGREDIENT” (NADIANBIO Ltd., priority 2015, published 2020)
